Here are results for 1 molecule from US10251843B2, “Crosslinked nanoparticle composition” (priority 2015, dated 2019).

For series [1] the following is noted: mice, reported; cited from earlier work.
A short description of series [2]: In vivo pharmacokinetics, serum amoxicillin after oral gavage. The conditions noted are these: ICR mice. The procedure: The experiments were performed on male and female ICR mice (6-8 weeks) to evaluate the amoxicillin concentration in serum. […] Each testing group contained 10 mice (five male and five female). The concentration of amoxicillin in each collected serum sample was determined by HPLC.

In the case of `CC1(C)S[C@@H]2[C@H](NC(=O)[C@H](N)c3ccc(O)cc3)C(=O)N2[C@H]1C(=O)O.O.O.O` [free amoxicillin, (2S,5R,6R)-6-[(R)-(−)-2-amino-2-(p-hydroxyphenyl)acetamido]-3,3-dimethyl-7-oxo-4-thia-1-azabicyclo[3.2.0]heptane-2-carboxylic acid trihydrate], the “plasma half-life of amoxicillin” value in series [1] was “about 40 minutes”. For the same molecule, the “time at which serum concentration of amoxicillin peaked” value in series [2] (2 mg amoxicillin) came to 15 min. Further, the “serum concentration as % of the peak value” in series [2] (after 1 hour) was “below 50%”; in series [2] (after 2 hours), “below 20%”. Moreover, the “area under the curve (total measured amount of drug in the circulation)” value in series [2] (compared with the nanoparticle formulation) is given as “smaller area”.
